Like-named read-outs stand apart in the source and are kept apart here.
Columns and labels:
PBR = target: T1, PBR (Rattus norvegicus, UniProt P16257); test: PDSP competitive binding assay; details: 10 µM test article; read-out: Ki: primary assay inhibition of radioligand binding, PBR
T1 construct: purchased NIMH Psychoactive Drug Screening Program (PDSP), University of North Carolina at Chapel Hill

M4 = target: T2, M4 (Homo sapiens, UniProt P08173); test: PDSP competitive binding assay; details: 10 µM test article; read-out: Ki: primary assay inhibition of radioligand binding, M4
T2 construct: purchased NIMH Psychoactive Drug Screening Program (PDSP), University of North Carolina at Chapel Hill
T2 sequence (P08173 whole entry): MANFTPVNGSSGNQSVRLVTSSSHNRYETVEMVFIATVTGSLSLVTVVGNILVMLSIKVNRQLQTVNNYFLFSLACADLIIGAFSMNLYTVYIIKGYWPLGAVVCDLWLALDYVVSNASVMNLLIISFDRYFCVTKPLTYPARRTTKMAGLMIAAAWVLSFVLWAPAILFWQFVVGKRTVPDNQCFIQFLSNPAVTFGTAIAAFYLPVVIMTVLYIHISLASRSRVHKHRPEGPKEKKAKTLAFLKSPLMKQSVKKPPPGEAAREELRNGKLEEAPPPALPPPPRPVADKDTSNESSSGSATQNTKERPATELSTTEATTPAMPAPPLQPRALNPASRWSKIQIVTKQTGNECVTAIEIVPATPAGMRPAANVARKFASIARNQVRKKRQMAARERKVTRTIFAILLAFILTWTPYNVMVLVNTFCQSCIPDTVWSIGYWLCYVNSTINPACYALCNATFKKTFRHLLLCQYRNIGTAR

Alpha1a = target: T3, Alpha1a (Homo sapiens, UniProt P35348); test: PDSP competitive binding assay
T3 sequence (P35348 1-466): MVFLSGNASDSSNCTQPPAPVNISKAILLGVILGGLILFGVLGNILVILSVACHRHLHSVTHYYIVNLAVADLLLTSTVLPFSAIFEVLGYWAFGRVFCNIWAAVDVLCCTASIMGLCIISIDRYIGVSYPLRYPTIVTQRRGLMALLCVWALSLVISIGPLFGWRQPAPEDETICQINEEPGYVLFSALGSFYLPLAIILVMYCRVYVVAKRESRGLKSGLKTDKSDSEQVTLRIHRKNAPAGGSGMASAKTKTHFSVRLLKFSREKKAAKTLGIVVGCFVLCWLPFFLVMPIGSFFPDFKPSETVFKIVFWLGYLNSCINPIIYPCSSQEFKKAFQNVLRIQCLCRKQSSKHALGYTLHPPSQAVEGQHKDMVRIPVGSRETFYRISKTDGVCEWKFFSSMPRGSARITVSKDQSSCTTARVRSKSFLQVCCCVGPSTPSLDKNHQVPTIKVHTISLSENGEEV

5HT7 = target: T4, 5HT7 (Homo sapiens, UniProt P34969); test: PDSP competitive binding assay; details: 10 µM test article; read-out: Ki: primary assay inhibition of radioligand binding, 5HT7
T4 construct: purchased NIMH Psychoactive Drug Screening Program (PDSP), University of North Carolina at Chapel Hill
T4 sequence (P34969 whole entry): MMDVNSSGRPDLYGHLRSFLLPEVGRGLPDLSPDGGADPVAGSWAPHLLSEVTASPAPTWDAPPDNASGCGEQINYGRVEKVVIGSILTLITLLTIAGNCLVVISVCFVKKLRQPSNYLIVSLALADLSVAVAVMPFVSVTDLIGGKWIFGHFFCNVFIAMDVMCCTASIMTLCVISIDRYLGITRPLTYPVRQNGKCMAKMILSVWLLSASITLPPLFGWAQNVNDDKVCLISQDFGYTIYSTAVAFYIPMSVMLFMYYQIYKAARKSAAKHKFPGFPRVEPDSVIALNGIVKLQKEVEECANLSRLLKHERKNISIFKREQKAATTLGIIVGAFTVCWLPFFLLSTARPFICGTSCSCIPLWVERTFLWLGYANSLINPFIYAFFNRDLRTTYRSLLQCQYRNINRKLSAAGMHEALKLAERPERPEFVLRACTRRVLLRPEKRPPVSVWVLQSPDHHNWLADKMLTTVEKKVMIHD

p-eIF2α in HEK293T cells = test: p-eIF2α ICC and spectrophotometry in HEK293T cells; format: cell-based, human
Method: The ICC protocol was based on a previously published protocol ([76]). […] Cells were blocked with 10% normal goat serum (NGS) in PBS-triton X (0.1%). […] Antibodies were incubated at 4 °C overnight. […] It was washed with PBS twice. […] Images were analyzed using Olympus CellSens. […] Number of cells analyzed are detailed in SI Appendix, Tables S3 and S4.
Human embryonic kidney (HEK) 293 T cells (ATCC # CRL-3216) were generously donated by the Campbell Lab (UT Dallas). Cells were grown at 37 °C with 5% CO2 in complete medium (10% FBS, 1% Pen-Strep in DMEM/F12 + GlutaMax (Gibco #10565-018) in T-75 flasks (Greiner Bio-One #658175). In a 96-well plate (ThermoFisher #165305), cells were plated at a density of 20,000 cells per well and grown to roughly 65% confluency before being treated with FEM-1689. For 2-h FEM-1689 treatment, HEK cells were plated at a density of 32,000 cells per well and treated at roughly 85% confluency. Three to five replicates were made per condition/dose (1/2 log steps ranging from 0.1 to 1,000 nM). ICC was performed to label p-eIF2α and DAPI. Immunofluorescence of HEK cells was quantified using the Synergy HTX Multimode Reader. For further details regarding the culturing of HEK cells, see SI Appendix. […]
Huma n e mbryon ic kidn ey (HEK) 293T ce lls (ATCC # C RL- 321 6) were ge nerously dona ted by th e Ca mpb ell Lab (UT Dallas). Cell stock s were previously fr ozen at 1 million cells/ml in 90% fetal bov ine s erum (F BS, ThermoFisher #SH300880340) and 10% DMSO. Cells were grown in complete medium (10% FBS, 1% Pen- Strep in DMEM/F12 + GlutaMax (Gibco #10565- 018) in T-75 flasks (Greiner Bio- One #658175). Cells were maintained at 37 °C with 5% CO2 and passaged twice before being plated onto either 96-well or 6-well plates for ICC/spectrophotometry and western blotting, respectively. Cells were counted using the TC20 automated cell counter (Bio- R ad #1450102) using a 1:1 dilution of trypan blue (Gibco #15250061).
In a 9 6-well p lat e (Therm oFisher #16 530 5), cells were p late d at a de nsity of 20,0 00 cells per w ell a nd gro wn to rou gh ly 65 % conf lu ency before be in g tre ate d w ith F EM- 16 89. For 2 h our F EM- 1689 trea tme nt, HEK ce lls were plated at a density of 32,000 cells per well and treated at roughly 85% confluency. […] Immunofluorescence of HEK cells was quantif ied using the Synergy HTX Multimode Reader. […] Wells were topped with 100 µL of 1X PBS prior to being read. DAPI and p -eIF2α reads were performed at bottom with a gain of 3 5 a nd 45, r espective ly. […]
fluorescence units (RFUs) of the negative controls were subtracted from each well. P-eIF2α fluorescence was normalized to DAPI in order to control for the number of cells present in the well and then to the fluoresce nce of th e veh icle t reatme nt as a p ercenta ge. […]

M2 = M2 (Homo sapiens, UniProt P08172); test: PDSP competitive binding assay; details: 10 µM test article; read-out: Ki: primary assay inhibition of radioligand binding, M2
M2, sequence (P08172 whole entry): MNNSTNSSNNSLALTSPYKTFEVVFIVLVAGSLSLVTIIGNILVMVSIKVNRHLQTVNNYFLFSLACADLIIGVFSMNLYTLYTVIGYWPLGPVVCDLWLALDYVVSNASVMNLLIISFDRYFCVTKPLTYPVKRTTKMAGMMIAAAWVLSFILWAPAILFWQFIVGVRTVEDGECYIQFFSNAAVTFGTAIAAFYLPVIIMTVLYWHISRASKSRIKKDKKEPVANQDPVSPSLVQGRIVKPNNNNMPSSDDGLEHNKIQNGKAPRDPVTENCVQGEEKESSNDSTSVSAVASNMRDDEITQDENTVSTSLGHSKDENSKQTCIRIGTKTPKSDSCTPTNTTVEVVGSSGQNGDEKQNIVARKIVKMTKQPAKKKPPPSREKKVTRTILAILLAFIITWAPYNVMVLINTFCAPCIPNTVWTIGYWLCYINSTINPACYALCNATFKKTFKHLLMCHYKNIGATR

BZP Rat Brain = test: PDSP competitive binding assay
[1] = dose response curve, given as LogKi with negative sign

**Q.** What does the source list for `OCCCN1CC[C@@H]2C[C@H]1c1cc(-c3ccc(C(F)(F)F)cc3)ccc12` [FEM-1689]?
**A.** inhibition at 10 µM (PBR): < 50%; inhibition at 10 µM (M4): < 50%; LogKi, Alpha1A (Alpha1a; [1]): -5.70; Ki (Alpha1a; read-out: Alpha1a Ki, single determination): 1990 nM; Ki (Alpha1a; read-out: Ki, Alpha1A, dose response curve): 1990 nM; inhibition at 10 µM (5HT7): < 50%; IC50 (p-eIF2α in HEK293T cells; 2 h treatment): 5.89 nM; IC50 (p-eIF2α in HEK293T cells; 16 h treatment): 0.74 nM; IC50 (p-eIF2α in HEK293T cells; Homo sapiens, HEK-293T, 2 h, 2 h treatment): 5.9 nM; IC50 (p-eIF2α in HEK293T cells; Homo sapiens, HEK-293T, 16 h, 16 h treatment): 0.7 nM; inhibition at 10 µM (M2): < 50%; LogKi, BZP Rat Brain (BZP Rat Brain; [1]): -5.18; Ki (BZP Rat Brain; dose response curve, read-out: Ki, BZP Rat Brain): 6590 nM; Ki (BZP Rat Brain; single determination, read-out: BZP Rat Brain Ki): 6600 nM
